Measured values reported in US20180289008A1, “METHODS FOR WILDFIRE CONTROL, INVASIVE PLANT CONTROL, AND RESIDUAL CONTROL OF INVASIVE PLANTS” (priority 2017, published 2018).
Where “and” joins values, the source holds several entries; their conditions need not be identical. Equal entries are not always repeated. Where two headings read alike, the source gives them in different places.

Key:
[1] = average; cited from earlier work
[2] = pH 7; cited from earlier work
[3] = tested on: Dalmatian toadflax (Linaria dalmatica); experiment: Greenhouse pre-emergence dose-response bioassay (GR50); assay type: in vivo
From the text: (§1) A greenhouse experiment was designed to determine if the extended control of Dalmatian toadflax and downy brome provided by indaziflam in the field was due to increased residual seedling control. This experiment was designed to compare indaziflam's pre-emergence efficacy to the currently recommended herbicides (aminocyclopyrachlor and aminopyralid) for annual, biennial, and perennial weed control in non-crop areas. […] This allows for direct comparisons between herbicides on an active ingredient basis for aminopyralid, aminocyclopyrachlor, and indaziflam.
(§2) For the greenhouse bioassay, seeds were planted at a constant depth of 0.5 cm in 13- by 9- by 6-cm plastic containers, filled with an Otero sandy clay loam field soil (Coarse-loamy, mixed (calcareous), mesic Aridic Ustorthents) with 3.9% OM and pH 7.7. Seeding densities were adjusted based on germinability to reach a target density of 40 plants/pot. Plants were maintained in a greenhouse with a 25/20° C. day/night temperature with natural light supplemented with high-intensity discharge lamps to give a 15-h photoperiod. Plants were sub-irrigated as needed and misted overhead daily to reduce soil crusting.
(§3) The greenhouse experiment was a completely randomized design with a factorial of seven herbicide rates and a non-treated control with three replicates per treatment. The experiments were conducted at two different times. A preliminary greenhouse study was conducted for each herbicide and species to determine a range of doses that would best fit a logistic regression. It is not unusual for both pre-emergence and post-emergence herbicides to provide control at lower than labeled rates, e.g., 0.5-560 g ai ha^−1 (aminocyclopyrachlor), 0.9-224 g ai ha^−1 (aminopyralid), and 0.05-11.7 g ai ha^−1 (indaziflam) in the greenhouse with ideal environmental conditions, so it was not surprising that herbicide doses for the regression analysis were much lower than recommended field use rates. Herbicides were applied pre-emergence using a Generation III research track sprayer (DeVries Manufacturing, Hollandale, Minn.) equipped with a TeeJet 8002 EVS flat-fan spray nozzle (TeeJet Spraying Systems Co., Wheaton, Ill.) at 187 L·ha-1 at 172 kPa.
(§4) Plants were harvested at the soil surface approximately 4 to 5 week-after-treatment (WAT) depending on the growth stage of each species. Weights were recorded after samples were dried for 5 days at 60° C. Percent dry weight reduction was calculated relative to the non-treated control plants for each treatment.
(§5) Data from the greenhouse dose-response experiment were first analyzed using the PROC MIXED method in SAS 9.3 with treatment as a fixed effect and experiment and replicate as random effects (SAS Institute 2010). Based on a non-significant homogeneity of variance (ANOVA) and experiment-by-herbicide rate interaction, results from the repeated experiments were pooled. The treatment effect was significant, therefore, nonlinear regression in Graphpad Prism 7.00 (GraphPad Software, La Jolla Calif. USA) was used to describe the response of the nine weed species to aminocyclopyrachlor, aminopyralid, and indaziflam. The herbicide concentrations resulting in 50% reduction in plant biomass (GR50) compared to the non-treated control were determined for each invasive weed species using four-parameter log-logistic regression. The equation used to regress herbicide concentration with percent reduction in plant dry biomass as compared to the non-treated control was:
(§6) where C and D represent the lower and upper limits of the dose-response curve, respectively, and b represents the slope of the best-fitting curve through the GR50 value. For curve fitting and GR50 estimation, the model was constrained to a maximum of 100 and minimum of 0. Mean separation of herbicide GR50 values were analyzed by Fisher's Protected LSD test at the 5% level of probability. […]

[4] = tested on: Diffuse knapweed (Centaurea diffusa); experiment: as above; assay type: in vivo
From the text: as §1, §2, §3, §4, §5, §6

[5] = tested on: Common teasel (Dipsacus fullonum); experiment: as above; assay type: in vivo
From the text: as §1, §2, §3, §4, §5, §6

[6] = tested on: downy brome (Bromus tectorum); experiment: as above; assay type: in vivo
From the text: as §1, §2, §3, §4, §5, §6

[7] = tested on: Common mullein (Verbascum thapsus); experiment: as above; assay type: in vivo
From the text: as §1, §2, §3, §4, §5, §6

[8] = tested on: Marestail (Conyza Canadensis); experiment: as above; assay type: in vivo
From the text: as §1, §2, §3, §4, §5, §6

[9] = tested on: Musk thistle (Carduus nutans); experiment: as above; assay type: in vivo
From the text: as §1, §2, §3, §4, §5, §6

[10] = tested on: Halogeton (Halogeton glomeratus); experiment: as above; assay type: in vivo
From the text: as §1, §2, §3, §4, §5, §6

[11] = tested on: Curly dock (Rumex crispus); experiment: as above; assay type: in vivo
From the text: as §1, §2, §3, §4, §5, §6

all nine weed species = experiment: Greenhouse pre-emergence dose-response bioassay, across all nine weed species; assay type: in vivo; conditions: averaging across all nine weed species
From the text: as §1, with “indaziflam. […]” for “indaziflam.”
as §4
Data from the greenhouse dose-response experiment were first analyzed using the PROC MIXED method in SAS 9.3 with treatment as a fixed effect and experiment and replicate as random effects (SAS Institute 2010). […] The herbicide concentrations resulting in 50% reduction in plant biomass (GR50) compared to the non-treated control were determined for each invasive weed species using four-parameter log-logistic regression. […]

Cc1ccc2c(c1)[C@H](Nc1nc(N)nc(C(C)F)n1)[C@@H](C)C2 (mixture of isomers) [Indaziflam, N2-[(1R,2S)-2,3-dihydro-2,6-dimethyl-1H-inden-1-yl]-6-[(1RS)-1-fluoroethyl]-1,3,5-triazine-2,4-diamine]
water solubility [1]: 3.6 µg/mL | Log Kow [2]: 2.8 | GR50 ratio Aminocyclopyrachlor/Indaziflam [3]: 19.33 | GR50 ratio Aminopyralid/Indaziflam [3]: 246.67 | GR50 ratio Aminocyclopyrachlor/Indaziflam ([3]; listed as indaziflam): 19 | GR50 ratio Aminopyralid/Indaziflam ([3]; listed as indaziflam): 247 | GR50 (herbicide dose resulting in 50% dry biomass reduction) ([3]; pre-emergence): 0.06 a g ai ha^−1 | GR50 ratio Aminocyclopyrachlor/Indaziflam [4]: 10.69 | GR50 ratio Aminopyralid/Indaziflam [4]: 4 and 4.31 | GR50 (herbicide dose resulting in 50% dry biomass reduction) ([4]; pre-emergence): 0.58 a g ai ha^−1 | GR50 ratio Aminocyclopyrachlor/Indaziflam [5]: 5.18 | GR50 ratio Aminopyralid/Indaziflam [5]: 0.56 | GR50 (herbicide dose resulting in 50% dry biomass reduction) ([5]; pre-emergence): 1.33 b g ai ha^−1 | GR50 ratio Aminocyclopyrachlor/Indaziflam [6]: 144.62 | GR50 ratio Aminopyralid/Indaziflam [6]: 98.72 | GR50 ratio Aminocyclopyrachlor/Indaziflam ([6]; listed as indaziflam): 125 | GR50 ratio Aminopyralid/Indaziflam ([6]; listed as indaziflam): 99 | GR50 (herbicide dose resulting in 50% dry biomass reduction) ([6]; pre-emergence): 0.39 a g ai ha^−1 | GR50 ratio Aminocyclopyrachlor/Indaziflam [7]: 44.57 | GR50 ratio Aminopyralid/Indaziflam [7]: 106 and 106.43 | GR50 (herbicide dose resulting in 50% dry biomass reduction) ([7]; pre-emergence): 0.07 a g ai ha^−1 | GR50 ratio Aminocyclopyrachlor/Indaziflam [8]: 12.29 | GR50 ratio Aminopyralid/Indaziflam [8]: 5 and 4.71 | GR50 (herbicide dose resulting in 50% dry biomass reduction) ([8]; pre-emergence): 0.17 a g ai ha^−1 | GR50 ratio Aminocyclopyrachlor/Indaziflam [9]: 3.79 | GR50 ratio Aminopyralid/Indaziflam [9]: 0.94 | GR50 (herbicide dose resulting in 50% dry biomass reduction) ([9]; pre-emergence): 0.33 a g ai ha^−1 | GR50 ratio Aminocyclopyrachlor/Indaziflam [10]: 2.89 | GR50 ratio Aminopyralid/Indaziflam [10]: 9 and 8.64 | GR50 (herbicide dose resulting in 50% dry biomass reduction) ([10]; pre-emergence): 0.36 a g ai ha^−1 | GR50 ratio Aminocyclopyrachlor/Indaziflam [11]: 19.36 | GR50 ratio Aminopyralid/Indaziflam [11]: 1.14 | GR50 (herbicide dose resulting in 50% dry biomass reduction) ([11]; pre-emergence): 1.10 a g ai ha^−1 | times more active than aminocyclopyrachlor (all nine weed species): 29 | times more active than aminopyralid (all nine weed species): 52
